We go through three compounds from patent publication US11033518B2, “Pharmaceutical composition containing niclosamide for treating axin-GSK3 interaction-related diseases” (BAOBAB PHARM CO., LTD., priority 2017, dated 2021).

For assay [1] the following is noted: relative to paclitaxel; cited from earlier work.
The target of another assay is T1, recombinant GSK3 beta (Homo sapiens, UniProt P49841).
T1 construct: His; made in house; host or cells: Sf9 insect cells; This is inferred: 'the purified recombinant GSK3 beta' points back to the protein of b91
The experiment in a line: Surface plasma resonance (SPR) analysis. The class given is binding. Here is the method:
In order to confirm whether niclosamide directly binds to GSK3, surface plasma resonance (SPR) analysis was conducted.
SPR was carried out using ProteOn™ XPR36 Protein Interaction Array system (Bio-Rad Laboratories, Inc., CA, USA), and the purified recombinant GSK3 beta was immobilized on ProteOn GLH sensor chip. The niclosamide or 19-mer wild-type Axin peptide or mutant peptide (VEPQKAAEEAIHRAEAVQR, mutation underlined) was diluted with phosphate-buffered saline+Tween 20+1% DMSO at different concentrations respectively, and then was flowed into the chip at a rate of 100 μl/min, and the result was analyzed by ProteOn Manager Software 2.0 using the standard Langmuir models for fitting kinetic data. The complex formation ratio was represented by an association constant (ka, in the unit of M−1s−1), and the complex decrement ratio was represented by a dissociation constant (kd, in the unit of s−1) as the following equilibrium equation 1.
The high-affinity interaction is represented by the low dissociation constant, and gradual cognition and binding with interactant (rapid “on rate,” or high ka), and stability of complex formation (slow “off rate,” or low kd) are equal to the equation KD=kd/ka.

Like-named read-outs stand apart in the source and are kept apart here. Ends that are not written are not given here.

T1 sequence (P49841 whole entry): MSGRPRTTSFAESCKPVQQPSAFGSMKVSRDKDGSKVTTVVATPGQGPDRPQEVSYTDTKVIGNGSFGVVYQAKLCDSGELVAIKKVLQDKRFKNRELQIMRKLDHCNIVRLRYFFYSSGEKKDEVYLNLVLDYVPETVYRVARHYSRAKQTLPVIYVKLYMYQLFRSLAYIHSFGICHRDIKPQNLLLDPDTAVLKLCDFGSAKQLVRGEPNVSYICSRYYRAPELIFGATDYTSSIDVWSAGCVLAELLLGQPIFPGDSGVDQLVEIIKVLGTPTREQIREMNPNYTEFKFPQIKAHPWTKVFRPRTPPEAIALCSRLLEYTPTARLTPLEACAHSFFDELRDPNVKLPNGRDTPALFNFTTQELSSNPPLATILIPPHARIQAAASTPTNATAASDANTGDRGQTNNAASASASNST

On to `CC[C@@H](C(=O)[C@@H](C)[C@@H](O)[C@H](C)[C@@H]1O[C@@H]([C@@H](CC)C(=O)O)CC[C@@H]1C)[C@H]1O[C@]2(C=C[C@@H](O)[C@]3(CC[C@@](C)([C@H]4CC[C@](O)(CC)[C@H](C)O4)O3)O2)[C@H](C)C[C@@H]1C` [Salinomycin], for which the “potency in inhibiting cancer differentiation in proportion to paclitaxel” value in assay [1] is “up to 100 times”.

Take `CC[C@H](C)[C@H](NC(=O)[C@H](CC(C)C)NC(=O)[C@H](CCC(=O)O)NC(=O)[C@H](CCC(=O)O)NC(=O)[C@H](C)NC(=O)[C@H](Cc1ccccc1)NC(=O)[C@H](CCCCN)NC(=O)[C@H](CCC(N)=O)NC(=O)[C@@H]1CCCN1C(=O)[C@H](CCC(=O)O)NC(=O)[C@@H](N)C(C)C)C(=O)N[C@@H](Cc1c[nH]cn1)C(=O)N[C@@H](CCCNC(=N)N)C(=O)N[C@@H](CC(C)C)C(=O)N[C@@H](CCC(=O)O)C(=O)N[C@@H](C)C(=O)N[C@H](C(=O)N[C@@H](CCC(N)=O)C(=O)N[C@@H](CCCNC(=N)N)C(=O)O)C(C)C` [wild-type Axin peptide, VEPQKFAEELIHRLEAVQR]: at recombinant GSK3 beta (immobilized GSK3 beta, read-out: Equilibrium dissociation constant, KD), the Kd was determined as 35 µM.

“VEPQKAAEEAIHRAEAVQR [mutant Axin peptide, VEPQKAAEEAIHRAEAVQR]”: the Kd on recombinant GSK3 beta (immobilized GSK3 protein, read-out: binding to GSK3 (could not bind up to)) is more than 100 µM.
